From ChEMBL document CHEMBL5230085, “Design, synthesis, and biological characterization of a new class of symmetrical polyamine-based small molecule CXCR4 antagonists” (Eur J Med Chem, 2020)
pIC50: −log10 of the molar value. Calls of active or inactive are those of the source. The calls are words filed in the database; no cut-off is given here.

Key:
[1] = target: T1, C-X-C chemokine receptor type 4 (Homo sapiens, UniProt P61073); assay: Binding affinity to CXCR4 (unknown origin) expressed in CHO cells incubated for 40 mins by competitive binding assay method; format: cell-based
[2] = tested on: C-X-C chemokine receptor type 4 (Homo sapiens), P61073 [E288D]; assay: Binding affinity to CXCR4 E288D mutant (unknown origin) by competitive binding assay method; conditions: filed as antagonist
[3] = tested on: C-X-C chemokine receptor type 4 (Homo sapiens), P61073 [R30A]; assay: Binding affinity to N-terminus CXCR4 R30A mutant (unknown origin)
[4] = tested on: C-X-C chemokine receptor type 4 (Homo sapiens), P61073 [D262A]; assay: Binding affinity to N-terminus CXCR4 D262A mutant (unknown origin)
[5] = target: T1, C-X-C chemokine receptor type 4; assay: Antagonist activity at CXCR4 receptor in SDF-1alpha-stimulated human SUP-T1 cells incubated for 30 mins by calcium mobilization assay; format: cell-based
[6] = tested on: C-X-C chemokine receptor type 4 (Homo sapiens), P61073 [E288D]; assay: Binding affinity to CXCR4 E288D mutant (unknown origin) by 12G5 competitive binding assay
[7] = tested on: C-X-C chemokine receptor type 4 (Homo sapiens), P61073 [D193A]; assay: Binding affinity to CXCR4 D193A mutant (unknown origin) assessed as reduction in potency; parameters: scale not given: the % may be the effect or the level left; conditions: filed as antagonist
[8] = Antiviral activity against HIV1 NL4-3 infected in human CEM-GFP cells assessed as inhibition in viral growth measured after 5 days by 96-well plate assay method; format: functional, cell-based; conditions: NL4-3, CEM-GFP, 120 h
CEM-GFP = assay: Cytotoxicity against human CEM-GFP cells assessed as cell viability at 10 uM incubated for 5 days by Celltiter-blue assay method; format: functional, cell-based; conditions: time 5.0 day
[9] = tested on: C-X-C chemokine receptor type 4 (Homo sapiens), P61073 [W195A]; assay: Binding affinity to CXCR4 W195A mutant (unknown origin) assessed as reduction in potency; parameters: scale not given: the % may be the effect or the level left; conditions: filed as antagonist
[10] = tested on: C-X-C chemokine receptor type 4 (Homo sapiens), P61073 [H113A]; assay: Binding affinity to N-terminus CXCR4 H113A mutant (unknown origin)
[11] = target: T1, C-X-C chemokine receptor type 4; assay: Binding affinity to CXCR4 (unknown origin); conditions: filed as antagonist

T1 sequence (P61073 whole entry): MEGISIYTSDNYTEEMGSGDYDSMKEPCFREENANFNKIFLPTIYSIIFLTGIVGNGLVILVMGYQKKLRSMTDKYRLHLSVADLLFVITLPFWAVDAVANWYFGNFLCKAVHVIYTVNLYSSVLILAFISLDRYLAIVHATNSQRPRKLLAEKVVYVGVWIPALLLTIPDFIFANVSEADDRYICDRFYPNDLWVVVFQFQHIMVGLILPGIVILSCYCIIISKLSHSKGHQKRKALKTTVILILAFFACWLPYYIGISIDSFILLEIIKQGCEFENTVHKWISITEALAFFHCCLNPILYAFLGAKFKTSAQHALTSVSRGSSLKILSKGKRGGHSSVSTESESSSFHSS
Chain of C-X-C chemokine receptor type 4 (Homo sapiens), P61073 [E288D] (P61073 whole entry E288D): as the sequence (P61073 whole entry) above, with E288D counted along it
Chain of C-X-C chemokine receptor type 4 (Homo sapiens), P61073 [R30A] (P61073 whole entry R30A): as the sequence (P61073 whole entry) above, with R30A counted along it
Chain of C-X-C chemokine receptor type 4 (Homo sapiens), P61073 [W195A] (P61073 whole entry W195A): as the sequence (P61073 whole entry) above, with W195A counted along it
Chain of C-X-C chemokine receptor type 4 (Homo sapiens), P61073 [H113A] (P61073 whole entry H113A): as the sequence (P61073 whole entry) above, with H113A counted along it
Chain of C-X-C chemokine receptor type 4 (Homo sapiens), P61073 [D262A] (P61073 whole entry D262A): as the sequence (P61073 whole entry) above, with D262A counted along it
Chain of C-X-C chemokine receptor type 4 (Homo sapiens), P61073 [D193A] (P61073 whole entry D193A): as the sequence (P61073 whole entry) above, with D193A counted along it

SMILES: c1c(CNCCCNC2CCCCC2)cc(CNCCCNC2CCCCC2)cc1CNCCCNC1CCCCC1
- pIC50 [1]: 6.51

SMILES: c1cc(CNCCCNC2CCCCC2)ccc1CNCCCNC1CCCCC1
- pIC50 [1]: 7.70
- Activity [2]: 40%
- Activity [3]: inactive
- Activity [4]: inactive
- pIC50 [5]: 6.92
- Activity [6]: 30%
- Activity [7]: 10%
- pIC50 [8]: 5.82
- Activity (CEM-GFP): Not toxic
- Activity [9]: 10%
- Activity [10]: inactive
- Activity [11]: 60%

SMILES: c1cc(CNCCCNC2CCCCC2)ncc1CNCCCNC1CCCCC1
- pIC50 [1]: 6.71

SMILES: O=C(NCCCNC1CCCCC1)c1ccc(CNCCCNC2CCCCC2)cc1
- pIC50 [1]: 6.16

SMILES: O=C(NCCCNC1CCCCC1)c1ccc(C(=O)NCCCNC2CCCCC2)cc1
- pIC50 [1]: 5.77

SMILES: c1ccc(CNCc2ccc(CNCc3ccccn3)cc2)nc1
- pIC50 [1]: < 5.00

SMILES: c1cc(-c2ccc(CNCCCNC3CCCCC3)cc2)ccc1CNCCCNC1CCCCC1
- pIC50 [1]: 7.17

SMILES: Nc1cc(CNCCCNC2CCCCC2)ccc1CNCCCNC1CCCCC1
- pIC50 [1]: 7.16

SMILES: CN(C)c1cc(CNCCCNC2CCCCC2)cc(CNCCCNC2CCCCC2)c1
- pIC50 [1]: 6.92

SMILES: CN(C)c1cc(CNCCCNC2CCCCC2)ccc1CNCCCNC1CCCCC1
- pIC50 [1]: 7.32

SMILES: O=[N+]([O-])c1cc(CNCCCNC2CCCCC2)ccc1CNCCCNC1CCCCC1
- pIC50 [1]: 6.45

SMILES: c1cc(CNC2CCCCC2)ccc1CNC1CCCCC1
- pIC50 [1]: < 5.00

SMILES: O=[N+]([O-])c1cc(CNCCCNC2CCCCC2)cc(CNCCCNC2CCCCC2)c1
- pIC50 [1]: 6.83

SMILES: c1ccc2c(CNCCCNC3CCCCC3)ccc(CNCCCNC3CCCCC3)c2c1
- pIC50 [1]: 7.39

SMILES: CNc1cc(CNCCCNC2CCCCC2)cc(CNCCCNC2CCCCC2)c1
- pIC50 [1]: 7.17

SMILES: c1cc(CNCCCNC2CCCCC2)nc(CNCCCNC2CCCCC2)c1
- pIC50 [1]: 6.92

SMILES: Nc1cc(CNCCCNC2CCCCC2)cc(CNCCCNC2CCCCC2)c1
- pIC50 [1]: 7.09

SMILES: c1cc(CNCCCNC2CCCCC2)cc(CNCCCNC2CCCCC2)c1
- pIC50 [1]: 6.81
